In patent US20180244611A1, “Modulators of the Cystic Fibrosis Transmembrane Conductance Regulator Protein and Methods of Use” (AbbVie S.à.r.l., priority 2017, published 2018):
pEC50: −log10 of the molar value.

What was measured:
F508delCFTR [1] = molecular target: T1, F508delCFTR (Homo sapiens, UniProt P13569, DEL508-508); experiment: Cell Surface Expression-Horse Radish Peroxidase (CSE-HRP) assay, test compound with co-corrector; format: cell-based; conditions: with 2 μM co-corrector; for Maximum % activity (with co-corrector): maximum at any tested concentration, normalized to positive control;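 for Maximum % activity (with co-corrector): percent of 2 µM positive control corrector over DMSO; co-corrector is that same compound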
T1 construct: expressed in transfected cells; host or cells: CFBE41o- human lung-derived epithelial cells (CFBE41o-F508delCFTR-HRP), doxycycline-inducible
T1 sequence (P13569 with tags, fused parts or gaps DEL508-508): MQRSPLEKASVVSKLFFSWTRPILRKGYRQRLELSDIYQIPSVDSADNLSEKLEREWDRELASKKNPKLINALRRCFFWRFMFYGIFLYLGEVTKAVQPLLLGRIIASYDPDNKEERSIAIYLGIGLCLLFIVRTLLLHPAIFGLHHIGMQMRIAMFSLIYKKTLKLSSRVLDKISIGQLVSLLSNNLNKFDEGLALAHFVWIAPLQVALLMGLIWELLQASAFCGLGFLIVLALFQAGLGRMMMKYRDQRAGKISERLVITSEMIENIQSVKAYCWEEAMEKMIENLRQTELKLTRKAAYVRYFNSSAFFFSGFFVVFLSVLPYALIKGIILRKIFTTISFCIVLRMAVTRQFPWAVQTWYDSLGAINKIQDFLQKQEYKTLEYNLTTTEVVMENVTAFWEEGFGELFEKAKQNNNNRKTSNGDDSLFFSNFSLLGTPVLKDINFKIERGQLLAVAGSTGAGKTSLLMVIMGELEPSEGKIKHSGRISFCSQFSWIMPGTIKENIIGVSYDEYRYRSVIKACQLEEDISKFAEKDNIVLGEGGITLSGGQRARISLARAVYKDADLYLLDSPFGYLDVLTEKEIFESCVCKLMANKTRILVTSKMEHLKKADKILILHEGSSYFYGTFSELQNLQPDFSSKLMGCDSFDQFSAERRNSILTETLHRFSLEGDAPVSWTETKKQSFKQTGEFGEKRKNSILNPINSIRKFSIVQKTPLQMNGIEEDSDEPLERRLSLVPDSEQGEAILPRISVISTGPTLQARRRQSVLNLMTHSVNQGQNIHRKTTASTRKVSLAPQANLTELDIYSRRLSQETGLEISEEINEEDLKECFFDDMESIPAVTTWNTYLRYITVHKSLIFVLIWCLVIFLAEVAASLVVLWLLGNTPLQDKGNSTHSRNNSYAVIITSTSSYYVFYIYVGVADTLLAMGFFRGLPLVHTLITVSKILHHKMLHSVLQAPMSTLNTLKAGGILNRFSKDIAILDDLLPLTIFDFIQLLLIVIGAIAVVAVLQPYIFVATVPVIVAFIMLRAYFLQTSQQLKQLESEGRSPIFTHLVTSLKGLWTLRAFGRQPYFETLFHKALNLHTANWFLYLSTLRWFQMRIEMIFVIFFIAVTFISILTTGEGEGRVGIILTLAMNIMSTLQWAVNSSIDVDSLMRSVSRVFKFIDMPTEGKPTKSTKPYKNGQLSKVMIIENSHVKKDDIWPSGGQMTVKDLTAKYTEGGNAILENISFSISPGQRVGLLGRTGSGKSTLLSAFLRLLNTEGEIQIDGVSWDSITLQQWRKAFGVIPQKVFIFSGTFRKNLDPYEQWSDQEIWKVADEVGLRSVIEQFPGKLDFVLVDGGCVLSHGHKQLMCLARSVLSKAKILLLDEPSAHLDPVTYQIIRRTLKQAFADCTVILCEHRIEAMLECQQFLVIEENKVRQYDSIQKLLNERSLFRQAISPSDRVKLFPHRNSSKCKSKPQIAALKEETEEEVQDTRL
Summary of the method: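 CFBE41o- cells expressing F508delCFTR with HRP in the fourth exofacial loop, induced with 0.5 μg/mL doxycycline for 72 h, then treated 18-24 h at 33° C. with compound (8 points, top 20 μM, 3-fold) plus 2 μM co-corrector. Surface HRP read by luminol luminescence; activity normalised to positive control, EC50 from variable-slope sigmoidal fit.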

F508delCFTR [2] = molecular target: T1, F508delCFTR; experiment: Cell Surface Expression-Horse Radish Peroxidase (CSE-HRP) assay, test compound without co-corrector; format: cell-based; conditions: for Emax: maximum at any tested concentration, normalized to positive control, without co-corrector; for pEC50: test compound without co-corrector;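 for Emax: percent of on-plate 2 µM positive control corrector response over DMSO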
Summary of the method: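 CFBE41o- cells expressing F508delCFTR with HRP in the fourth exofacial loop, induced with 0.5 μg/mL doxycycline for 72 h at 37° C, then exposed to compound alone for 18-24 h at 33° C, 8-point 3-fold series from 20 μM. Surface HRP read by luminol luminescence, normalized to positive corrector control versus DMSO; EC50 from variable-slope sigmoidal fit of three replicate plates.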

Row | Structure (SMILES) | Maximum % activity (with co-corrector) (F508delCFTR [1]) | pEC50 (F508delCFTR [1]) | Emax (F508delCFTR [2]) [%] | pEC50 (F508delCFTR [2])
1 | COc1cccc2c1CCC2C(=O)NS(=O)(=O)c1ccc(O)cc1 (centres unmarked) [III-20] | + (<150) | ≤ 5.00 | < 50 | ≤ 5.00
2 | COc1cccc2c1CCC2C(=O)NS(=O)(=O)Cc1ccccc1 (centres unmarked) [III-21] | + (<150) | ≤ 5.00 | < 50 | ≤ 5.00
3 | COc1cccc2c1CCC2C(=O)NS(=O)(=O)c1ccc2cc(O)ccc2c1 (centres unmarked) [III-22] | + (<150) | ≤ 5.00 | < 50 | ≤ 5.00
4 | COc1cccc2c1CCC2C(=O)NS(=O)(=O)c1ccc(C)cc1 (centres unmarked) [III-23] | ++ (≥150 and <350) | 5.00 to 5.52 | < 50 | 5.00 to 5.52
5 | COc1cccc2c1CCC2C(=O)NS(=O)(=O)c1nnc(NC(C)=O)s1 (centres unmarked) [III-24] | + (<150) | ≤ 5.00 | < 50 | ≤ 5.00
6 | COc1cccc2c1CCC2C(=O)NS(=O)(=O)c1cc(C)ccc1C(C)C (centres unmarked) [III-25] | + (<150) | 5.00 to 5.52 | < 50 | ≤ 5.00
7 | COc1cccc2c1CCC2C(=O)NS(=O)(=O)c1ccc(S(C)(=O)=O)cc1 (centres unmarked) [III-26] | + (<150) | ≤ 5.00 | < 50 | ≤ 5.00
8 | COc1cccc2c1CCC2C(=O)NS(=O)(=O)c1cccc([N+](=O)[O-])c1 (centres unmarked) [III-27] | + (<150) | ≤ 5.00 | < 50 | ≤ 5.00
9 | COc1cccc2c1CCC2C(=O)NS(=O)(=O)c1ccc(Cl)c([N+](=O)[O-])c1 (centres unmarked) [III-28] | + (<150) | ≤ 5.00 | < 50 | ≤ 5.00
10 | COc1cccc2c1CCC2C(=O)NS(=O)(=O)c1cc([N+](=O)[O-])ccc1C (centres unmarked) [III-30] | + (<150) | ≤ 5.00 | < 50 | ≤ 5.00
11 | COc1cccc2c1CCC2C(=O)NS(=O)(=O)c1ccc(NC(C)=O)cc1C (centres unmarked) [III-31] | + (<150) | ≤ 5.00 | < 50 | ≤ 5.00
12 | COc1cccc2c1CCC2C(=O)NS(=O)(=O)c1ccc(Cl)cc1 (centres unmarked) [III-32] | + (<150) | ≤ 5.00 | < 50 | ≤ 5.00
13 | COc1cccc2c1CCC2C(=O)NS(=O)(=O)c1ccc(Cl)cc1[N+](=O)[O-] (centres unmarked) [III-33] | ++ (≥150 and <350) | > 5.52 | < 50 | ≤ 5.00
14 | COc1cccc2c1CCC2C(=O)NS(=O)(=O)c1ccc2ccccc2c1 (centres unmarked) [III-34] | + (<150) | ≤ 5.00 | < 50 | ≤ 5.00
15 | COc1cccc2c1CCC2C(=O)NS(=O)(=O)c1cccc(Cl)c1 (centres unmarked) [III-35] | ++ (≥150 and <350) | 5.00 to 5.52 | < 50 | ≤ 5.00
16 | COc1cccc2c1CCC2C(=O)NS(=O)(=O)c1ccc(NC(=O)CC(C)=O)cc1 (centres unmarked) [III-36] | + (<150) | ≤ 5.00 | < 50 | ≤ 5.00
17 | COc1cccc2c1CCC2C(=O)NS(=O)(=O)c1ccc(Cl)cc1Cl (centres unmarked) [III-37] | + (<150) | ≤ 5.00 | < 50 | ≤ 5.00
18 | COc1cccc2c1CCC2C(=O)NS(=O)(=O)c1cc(C)c(N)cc1Cl (centres unmarked) [III-38] | ++ (≥150 and <350) | 5.00 to 5.52 | < 50 | ≤ 5.00
19 | COc1cccc2c1CCC2C(=O)NS(=O)(=O)c1cc(C)ccc1Cl (centres unmarked) [III-39] | + (<150) | ≤ 5.00 | < 50 | ≤ 5.00
20 | COc1cccc2c1CCC2C(=O)NS(=O)(=O)c1cc([N+](=O)[O-])ccc1Cl (centres unmarked) [III-40] | + (<150) | ≤ 5.00 | < 50 | ≤ 5.00
21 | COc1cccc2c1CCC2C(=O)NS(=O)(=O)c1ccc(NC(C)=O)cc1 (centres unmarked) [III-41] | + (<150) | ≤ 5.00 | < 50 | ≤ 5.00
22 | COc1cccc2c1CCC2C(=O)NS(=O)(=O)c1ccc(NC(C)=O)cc1Cl (centres unmarked) [III-42] | + (<150) | ≤ 5.00 | < 50 | ≤ 5.00

Row | Structure (SMILES) | Maximum % activity (with co-corrector) (F508delCFTR [1]) | pEC50 (F508delCFTR [1]) | Emax (F508delCFTR [2]) [%] | pEC50 (F508delCFTR [2])
23 | CCCC(=O)Nc1ccc(S(=O)(=O)NC(=O)C2CCc3c(OC)cccc32)cc1 (centres unmarked) [III-43] | + (<150) | ≤ 5.00 | < 50 | ≤ 5.00
24 | COc1cccc2c1CCC2C(=O)NS(=O)(=O)c1c(C)nn(C)c1Cl (centres unmarked) [III-44] | + (<150) | ≤ 5.00 | < 50 | ≤ 5.00
25 | COc1cccc2c1CCC2C(=O)NS(=O)(=O)c1c(C)nc(O)nc1O (centres unmarked) [III-45] | + (<150) | ≤ 5.00 | < 50 | ≤ 5.00
26 | COc1cccc2c1CCC2C(=O)NS(=O)(=O)c1ccc(C#N)cc1 (centres unmarked) [III-46] | + (<150) | ≤ 5.00 | < 50 | ≤ 5.00
27 | COc1cccc2c1CCC2C(=O)NS(=O)(=O)c1ccc2oc(=O)ccc2c1 (centres unmarked) [III-47] | + (<150) | ≤ 5.00 | < 50 | ≤ 5.00
28 | CCOC(=O)c1ccc(S(=O)(=O)NC(=O)C2CCc3c(OC)cccc32)cc1 (centres unmarked) [III-48] | + (<150) | ≤ 5.00 | < 50 | ≤ 5.00
29 | COc1cccc2c1CCC2C(=O)NS(=O)(=O)c1ccc(C)c([N+](=O)[O-])c1C (centres unmarked) [III-49] | ++ (≥150 and <350) | 5.00 to 5.52 | < 50 | ≤ 5.00
30 | COc1cccc2c1CCC2C(=O)NS(=O)(=O)c1cc(C(=O)Nc2c(C)cccc2C)c(O)cc1Cl (centres unmarked) [III-50] | + (<150) | ≤ 5.00 | < 50 | ≤ 5.00
31 | COc1cccc2c1CCC2C(=O)NS(=O)(=O)c1c(C)nn(CCCl)c1C (centres unmarked) [III-51] | + (<150) | ≤ 5.00 | < 50 | ≤ 5.00
32 | CCN1CCC[C@H]1CNC(=O)c1cc(S(=O)(=O)NC(=O)C2CCc3c(OC)cccc32)ccc1OC (some centres unmarked) [III-52] | + (<150) | ≤ 5.00 | < 50 | ≤ 5.00
33 | CCOc1ccc2nc(S(=O)(=O)NC(=O)C3CCc4c(OC)cccc43)sc2c1 (centres unmarked) [III-53] | + (<150) | ≤ 5.00 | < 50 | ≤ 5.00
34 | CCCCCC(=O)c1ccc(S(=O)(=O)NC(=O)C2CCc3c(OC)cccc32)cc1 (centres unmarked) [III-54] | + (<150) | ≤ 5.00 | < 50 | ≤ 5.00
35 | COc1cccc2c1CCC2C(=O)NS(=O)(=O)c1ccc(N2CCN(CC[C@@H]3OCCc4ccccc43)CC2)cc1 (some centres unmarked) [III-55] | + (<150) | 5.00 to 5.52 | < 50 | ≤ 5.00
36 | COc1cccc2c1CCC2C(=O)NS(=O)(=O)c1ccccc1C(=O)OC(C)C (centres unmarked) [III-56] | +++ (≥350) | 5.00 to 5.52 | 50 to 150 | 5.00 to 5.52
37 | COc1cccc2c1CCC2C(=O)NS(=O)(=O)c1ccc(NCCC(C)(C)O)c([N+](=O)[O-])c1 (centres unmarked) [III-57] | + (<150) | ≤ 5.00 | < 50 | ≤ 5.00
38 | COc1cccc2c1CCC2C(=O)NS(=O)(=O)c1cc(-c2nc3c([nH]2)c(=O)n(C)c(=O)n3C)ccc1Cl (centres unmarked) [III-58] | ++ (≥150 and <350) | 5.00 to 5.52 | < 50 | 5.00 to 5.52
39 | COc1cccc2c1CCC2C(=O)NS(=O)(=O)c1nc2c(c(=O)n(C)c(=O)n2C)n1Cc1ccc(Cl)cc1 (centres unmarked) [III-59] | + (<150) | ≤ 5.00 | < 50 | ≤ 5.00
40 | COc1cccc2c1CCC2C(=O)NS(=O)(=O)c1nc2c(=O)n(C)c(=O)n(C)c2n1Cc1ccccc1 (centres unmarked) [III-60] | + (<150) | ≤ 5.00 | < 50 | ≤ 5.00
41 | COc1cccc2c1CCC2C(=O)NS(=O)(=O)c1ccc(CN(C)C)cc1 (centres unmarked) [III-61] | + (<150) | ≤ 5.00 | < 50 | ≤ 5.00
42 | COc1cccc2c1CCC2C(=O)NS(=O)(=O)c1cccc(F)c1C#N (centres unmarked) [III-62] | + (<150) | 5.00 to 5.52 | < 50 | ≤ 5.00
43 | COc1cccc2c1CCC2C(=O)NS(=O)(=O)c1ccc(O)c([N+](=O)[O-])c1 (centres unmarked) [III-63] | + (<150) | ≤ 5.00 | < 50 | ≤ 5.00
44 | COc1cccc2c1CCC2C(=O)NS(=O)(=O)c1cccc(C#N)c1 (centres unmarked) [III-64] | + (<150) | ≤ 5.00 | < 50 | ≤ 5.00
